Test results from patent publication EP0082498A2, “Beta-lactam compounds and process for the preparation thereof” (SAGAMI CHEMICAL RESEARCH CENTER, priority 1981, dated 1983).
≈ marks a conversion by molar mass, not a printed value. Where two headings read alike, the source gives them in different places.

Experiments:
Test in all cases: Antibacterial activity, minimum inhibition concentration (MIC)
Type in all cases: cell-based
[1] = system: Staphylococcus aureus MS 353; settings: for MIC: Staphylococcus aureus; for minimum inhibition concentration (MIC): Table 1
Description: (§1) Antibacterial activities of the compounds according to this invention, which had been prepared in the preceding Examples, were measured according to the method prescribed by The Committee of Amendment of "The method for measurement of the minimum inhibition concentration", The Chemotherapy Association, Japan (See Chemotherapy, Vol. 29, No. 1, pp. 76 ~ 79 (1981)).
(§2) The test results are shown in terms of the minimum inhibition concentration (MIC) (unit: µg/mℓ) in the following Tables 1 to 4.

[2] = system: Proteus morganii IFO 3848; settings: for MIC: Morganella morganii; for minimum inhibition concentration (MIC): Table 1
Description: as §1, §2

[3] = system: Salmonella typhimurium IID-971; settings: for MIC: Salmonella enterica, read-out: minimum inhibition concentration (MIC)
Description: as §1, §2

[4] = system: Salmonella typhimrium 901; settings: Table 4; Salmonella typhimrium 901; read-out: minimum inhibition concentration (MIC)
Description: as §1, §2

[5] = MS353, Table 1, Staphylococcus aureus MS 353, read-out: minimum inhibition concentration (MIC)
[6] = IFO3848, Table 1, Proteus morganii IFO 3848, read-out: minimum inhibition concentration (MIC)
[7] = Table 1, Salmonella typhimurium IID-971

Structure (SMILES) | MIC [1, 5] [µg/mL] | MIC [2, 6] [µg/mL] | MIC [3, 7] [µg/mL] | also measured
Cc1nnc(SCC2=C(C(=O)O)N3C(=O)C(NC(=O)C(=CCl)c4csc(N)n4)C3SC2)s1 (single isomer, unassigned) [Example 1, sodium 7-[2-chloromethylene-2-(2-aminothiazol-4-yl)acetamido]-3-(2-methyl-l,3,4-thiadiazol-5-yl)thiomethyl-3-cephem-4-carboxylate] | 0.1 | ≤ 0.006 | ≤ 0.006 | –
CC1=C(C(=O)O)N2C(=O)C(NC(=O)C(=CCl)c3csc(N)n3)C2SC1 (single isomer, unassigned) [Example 2, sodium 7-[2-chloromethylene-2-(2-aminothiazol-4-yl)acetamido]desacetoxy-cephalosporanate] | 6.25 | 0.0125 | 0.0125 | –
Nc1nc(C(=CCl)C(=O)NC2C(=O)N3C(C(=O)[O-])=C(CSc4nncs4)CS[C@H]23)cs1.[Na+] (single isomer, unassigned) [Example 3, sodium 7-[2-chloromethylene-2-(2-aminothiazol-4-yl)acetamido]-3-(1,3,4-thiadiazol-5-yl)thiomethyl-3-cephem-4-carboxylate] | – | – | – | MIC ([1]; MS353, read-out: minimum inhibition concentration (MIC)): 0.1 µg/mL; MIC ([2]; IFO3848, read-out: minimum inhibition concentration (MIC)): ≤ 0.006 µg/mL; MIC [3]: ≤ 0.006 µg/mL
Cn1nc(O)c(=O)nc1SCC1=C(C(=O)O)N2C(=O)C(NC(=O)C(=CCl)c3csc(N)n3)C2SC1 (single isomer, unassigned) [Example 4, disodium 7-[2-chloromethylene-2-(2-aminothiazol-4-yl)acetamido]-3-(2,5-dihydro-6-hydroxy-2-methyl-5-oxo-as-triazin-3-yl)thiomethyl-3-cephem-4-carboxylate] | 0.78 | ≤ 0.006 | ≤ 0.006 | –
Cn1nnnc1SCC1=C(C(=O)O)N2C(=O)C(NC(=O)C(=CCl)c3ccccc3)C2SC1 (single isomer, unassigned) [Example 5, 7-(2-chloromethylenephenylacetamido)-3-(1-methyl-lH-tetrazol-5-yl)thiomethyl-3-cephem-4-carboxylic acid] | – | – | 0.78 (≈ 1.58 µM) | minimum inhibition concentration (MIC) ([1]; Staphylococcus aureus MS 353): 0.05 µg/mL (≈ 0.101 µM); minimum inhibition concentration (MIC) ([2]; Proteus morganii IFO 3848): 0.78 µg/mL (≈ 1.58 µM)
Cn1nnnc1SCC1=C(C(=O)O)N2C(=O)C(NC(=O)C(=CCl)c3ccccc3)C2SC1 (single isomer, unassigned) [Example 6, 7-(2-chloromethylenephenylacetamido)-3-(l-methyl-lH-tetrazol-5-yl)thiomethyl-3-cephem-4-carboxylic acid] | – | – | – | minimum inhibition concentration (MIC) ([1]; Staphylococcus aureus MS 353): 0.78 µg/mL (≈ 1.58 µM); minimum inhibition concentration (MIC) ([2]; Proteus morganii IFO 3848): 6.25 µg/mL (≈ 12.7 µM); minimum inhibition concentration (MIC) [3, 7]: 1.56 µg/mL (≈ 3.16 µM)
Cn1nnnc1SCC1=C(C(=O)O)N2C(=O)C(NC(=O)C(=CC#N)c3csc(NC=O)n3)[C@H]2SC1 (single isomer, unassigned) [Example 13, 7-[2-Cyanomethylene-2-(2-formylaminothiazol-4-yl)acetamido]-3-(1-methyl-1H-tetrazol-5-yl)thiomethyl-3-cephem-4-carboxylic acid] | – | – | – | minimum inhibition concentration (MIC) ([1]; Staphylococcus aureus MS 353): 50 µg/mL (≈ 93.7 µM); minimum inhibition concentration (MIC) ([2]; Proteus morganii IFO 3848): 50 µg/mL (≈ 93.7 µM); minimum inhibition concentration (MIC) [3, 7]: 25 µg/mL (≈ 46.9 µM)
Cl.Cn1nnnc1SCC1=C(C(=O)O)N2C(=O)C(NC(=O)C(=CC#N)c3csc(N)n3)[C@H]2SC1 (single isomer, unassigned) [Example 14, 7-[2-Cyanomethylene-2-(2-aminothiazol-4-yl)acetamido]-3-(1-methyl-1H-tetrazol-5-yl)thiomethyl-3-cephem-4-carboxylic acid hydrochloride salt] | 100 | 0.39 | 0.39 | –
Cn1nnnc1SCC1=C(C(=O)O)N2C(=O)C(NC(=O)C(=CC#N)c3csc(NC=O)n3)[C@H]2SC1 (single isomer, unassigned) [Example 15, 7-[2-Cyanomethylene-2-(2-formylaminothiazol-4-yl)acetamido]-3-(1-methyl-1H-tetrazol-5-yl)thiomethyl-3-cephem-4-carboxylic acid] | – | – | – | minimum inhibition concentration (MIC) ([1]; Staphylococcus aureus MS 353): 1.56 µg/mL (≈ 2.92 µM); minimum inhibition concentration (MIC) ([2]; Proteus morganii IFO 3848): 0.39 µg/mL (≈ 0.731 µM); minimum inhibition concentration (MIC) [3, 7]: 0.05 µg/mL (≈ 0.0937 µM)
Cn1nnnc1SCC1=C(C(=O)O)N2C(=O)C(NC(=O)C(=CC#N)c3csc(N)n3)C2SC1 (single isomer, unassigned) [Example 16, 7-[2-Cyanomethylene-2-(2-aminothiazol-4-yl)acetamido]-3-(l-methyl-lH-tetrazol-5-yl)thiomethyl-3-cephem-4-carboxylic acid] | 0.78 (≈ 1.54 µM) | ≤ 0.006 | ≤ 0.006 | –
COC(=N)C=C(C(=O)NC1C(=O)N2C(C(=O)O)=C(CSc3nnnn3C)CSC12)c1csc(N)n1 (single isomer, unassigned) [Example 17, 7-[2-(o-methylcarboxyimidoylmethylene)-2-(2-aminothiazol-4-yl)acetamido]-3-(1-methyl-1H-tetrazol-5-yl)thiomethyl-3-cephem-4-carboxylic acid] | 3.12 (≈ 5.81 µM) | ≤ 0.006 | 0.0125 (≈ 0.0233 µM) | –
Cn1nnnc1SCC1=C(C(=O)O)N2C(=O)C(NC(=O)C(=CC(N)=O)c3csc(N)n3)C2SC1 (single isomer, unassigned) [Example 18, 7-[2-Carbamoylmethylene-2-(2-aminothiazol-4-yl)acetamido]-3-(1-methyl-lH-tetrazol-5-yl)thiomethyl-3-cephem-4-carboxylic acid] | 12.5 (≈ 23.9 µM) | ≤ 0.006 | 0.1 (≈ 0.191 µM) | –
Nc1nc(C(=CCl)C(=O)NC2C(=O)N3C(C(=O)O)=C(CSc4nnnn4CC(=O)O)CS[C@H]23)cs1 (single isomer, unassigned) [Example 19, 7-[2-Chloromethylene-2-(2-aminothiazol-4-yl)acetamido]-3-(1-carboxymethyl-1H-tetrazol-5-yl)thiomethyl-3-cephem-4-carboxylic acid] | 1.56 (≈ 2.79 µM) | ≤ 0.006 | ≤ 0.006 | –
CSc1nnc(SCC2=C(C(=O)O)N3C(=O)C(NC(=O)C(=CCl)c4csc(N)n4)C3SC2)s1 (single isomer, unassigned) [Example 20, 7-[2-chloromethylene-2-(2-aminothiazol-4-yl)acetamido]-3-(2-methylthio-l,3,4-thiadiazol-5-yl)thiomethyl-3-cephem-4-carboxylic acid] | 0.1 (≈ 0.178 µM) | ≤ 0.006 | ≤ 0.006 | –
NC(=O)Cn1nnnc1SCC1=C(C(=O)O)N2C(=O)C(NC(=O)C(=CCl)c3csc(N)n3)C2SC1 (single isomer, unassigned) [Example 29, sodium 7-[2-chloromethylene-2-(2-aminothiazol-4-yl)acetamido]-3-(1-carbamoylmethyl-1,2,3,4-tetrazol-5-yl)thiomethyl-3-cephem-4-carboxylate] | – | – | – | MIC ([1]; MS353, Table 4, Staphylococcus aureus MS 353, read-out: minimum inhibition concentration (MIC)): 0.78 µg/mL; MIC [4]: 0.1 µg/mL
Cn1nnnc1SCC1=C(C(=O)O)N2C(=O)C(NC(=O)C(=CCl)c3cnc(N)s3)C2SC1 (stereo not drawn) [Example 7, sodium 7-[2-chloromethylene-2-(2-aminothiazol-5-yl)acetamido]-3-(l-methyl-lH-tetrazol-5-yl)thiomethyl-3-cephem-4-carboxylate] | 0.39 | 1.56 | 1.56 | –
CC(=O)OCC1=C(C(=O)O)N2C(=O)C(NC(=O)C(=CCl)c3cnc(N)s3)C2SC1 (stereo not drawn) [Example 8, sodium 7-[2-chloromethylene-2-(2-aminothiazol-5-yl)acetamido]-cephalosporanate] | 0.78 | – | 25 | –
Cn1nnnc1SCC1=C(C(=O)O)N2C(=O)C(NC(=O)C(=CCl)Sc3cnc(N)s3)C2SC1 (stereo not drawn) [Example 9, sodium 7-[2-chloromethylene-3-(2-aminothiazol-5-yl)mercaptoacetamido]-3-(1-methyl-1H-tetrazol-5-yl)thiomethyl-3-cephem-4-carboxylate] | 3.12 | – | 25 | –
CCSC=C(C(=O)NC1C(=O)N2C(C(=O)O)=C(CSc3nnnn3C)CSC12)c1csc(N)n1 (stereo not drawn) [Example 10, sodium 7-[2-ethylmercaptomethylene-2-(2-aminothiazol-4-yl)acetamido]-3-(l-methyl-lH-tetrazol-5-yl)thiomethyl-3-cephem-4-carboxylate] | 1.56 | ≤ 0.006 | ≤ 0.006 | –
CCSC=C(C(=O)NC1C(=O)N2C(C(=O)O)=C(CSc3nnnn3C)CSC12)c1csc(N)n1 (stereo not drawn) [Example 11, 7-[2-ethylmercaptomethylene-2-(2-aminothiazol-4-yl)-acetamido]-3-(l-methyl-lH-tetrazol-5-yl)thiomethyl-3-cephem-4-carboxylic acid] | – | – | – | minimum inhibition concentration (MIC) ([1]; Staphylococcus aureus MS 353): 0.78 µg/mL (≈ 1.44 µM); minimum inhibition concentration (MIC) ([2]; Proteus morganii IFO 3848): ≤ 0.006 µg/mL; minimum inhibition concentration (MIC) [3, 7]: ≤ 0.006 µg/mL
CSC=C(C(=O)NC1C(=O)N2C(C(=O)O)=C(CSc3nnnn3C)CSC12)c1csc(N)n1 (stereo not drawn) [Example 12, 7-[2-Methylmercaptomethylene-2-(2-aminothiazol-4-yl)-acetamido]-3-(l-methyl-lH-tetrazol-5-yl)thiomethyl-3-cephem-4-carboxylic acid] | 1.56 (≈ 2.96 µM) | ≤ 0.006 | ≤ 0.006 | –
Cn1nnnc1SCC1=C(C(=O)O)N2C(=O)C(NC(=O)C(=CBr)c3csc(N)n3)C2SC1 (stereo not drawn) [Example 21, 7-[2-Bromomethylene-2-(2-aminothiazol-4-yl)acetamido]-3-(l-methyl-lH-tetrazol-5-yl)thiomethyl-3-cephem-4-carboxylic acid] | 0.2 (≈ 0.357 µM) | 0.0125 (≈ 0.0223 µM) | ≤ 0.006 | –
